One test concerns sourgrass. Nature of the test: Test D sourgrass. The format is in vivo, Trichachne insularis. The conditions noted are these: Preemergence, 0 to 100 scale. From the text:
Seeds, tubers, or plant parts of Alexandergrass (Brachiaria plantaginea), bermuda-grass (Cynodon dactylon), common pursiane (Portulaca oleracea), common ragweed (Ambrosia elatior), common groundsel (Senecio vulgaris), dallisgrass (Paspalum dilatatum), goosegrass (Eleusine indica), guineagrass (Panicum maximum), itchgrass (Rottboellia exaltata), Johnson grass (Sorghum halepense), large crabgrass (Digitaria sanguinalis), pitted morningglory (Ipomoea lacunosa), purple nutsedge (Cyperus rotundus), sandbur (Cenchrus echinatus), sourgrass (Trichachne insularis), Spanishneedles (Bidens bipinnata), surinam grass (Brachiaria decumbens) and tall mallow (Malva sylvestris) were planted into greenhouse pots of flats containing greenhouse planting medium. Plant species were grown in separate pots or individual compartments. Preemergence applications were made within one day of planting the seed or plant part.
Test chemicals were formulated in a non-phytotoxic solvent mixture which included a surfactant and applied preemergence to the surface of the pot containing seeds in a sandy loam soil. Untreated control pots and treated pots were placed in the greenhouse for growth and visually evaluated for injury 14 to 21 days after herbicide application. Plant response ratings, summarized in Table C, are based on a 0 to 100 scale where 0 is no injury and 100 is complete control. A dash (−) response means no test result.

In another test the test system is johnsongrass. Nature of the test: Test C postemergence johnsongrass. The format is in vivo, Sorghum halepense. Conditions: 0 to 100 scale, 0 no effect, 100 complete control. The procedure: Compounds evaluated in this test were formulated in a non-phytotoxic solvent mixture which included a surfactant and applied to plants that were grown for various periods of time before treatment (postemergence application). A mixture of sandy loam soil and greenhouse potting mix in a 60:40 ratio was used for the postemergence test.
Plantings of these crops and weed species were adjusted to produce plants of appropriate size for the postemergence test. All plant species were grown using normal greenhouse practices. Crop and weed species include arrowleaf sida (Sida rhombifolia), barnyardgrass (Echinochloa crus-galli), cocklebur (Xanthium strumarium), common ragweed (Ambrosia elatior), corn (Zea mays), cotton (Gossypium hirsutum), eastern black nightshade (Solanum ptycanthum), fall panicum (Panicum dichotomiflorum), field bindweed (Convolvulus arvensis), giant foxtail (Setaria faberii), hairy beggarticks (Bidens pilosa), ivyleaf morningglory (Ipomoea hederacea), johnsongrass (Sorghum halepense), ladysthumb smartweed (Polygonum persicaria), lambsquarters (Chenopodium album), large crabgrass (Digitaria sanguinalis), purple nutsedge (Cyperus rotundus), redroot pigweed (Amaranthus retroflexus), soybean (Glycine max), surinam grass (Brachiaria decumbens), velvetleaf (Abutilon theophrasti) and wild poinsettia (Euphorbia heterophylla).
Treated plants and untreated controls were maintained in a greenhouse for approximately 14, to 21 days, after which all treated plants were compared to untreated controls and visually evaluated. Plant response ratings, summarized in Table C, were based upon a 0 to 100 scale where 0 was no effect and 100 was complete control. A dash response (−) means no test result.

For a further test, the system named is giant foxtail. Nature of the test: Test C postemergence giant foxtail. It is filed as in vivo, Setaria faberii. The conditions noted are these: 0 to 100 scale, 0 no effect, 100 complete control. The essentials:
(§1)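 Soil: sandy loam/potting mix 60:40. Treatment: postemergence, solvent + surfactant formulation. Readout: visual control score 0–100 vs untreated at ~14–21 days.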

The subject of a further test is Amaranthus rudis (AMATA). Put plainly: Test F preemergence, alone and in mixture with rimsulfuron, AMATA. The conditions noted are these: 21 days after treatment, 0-100 scale. The format is in vivo. The essentials: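 Greenhouse pot plants treated preemergence with compound at 70 and 105 g ai/ha, rimsulfuron at 8.8 and 17.5 g ai/ha, or mixtures; 27° C day/21° C night, 14 hour photoperiod. Injury scored at 21 days after treatment against solvent-sprayed controls; expected additive effect of mixtures calculated by Colby's equation.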

The test system of the next test is cocklebur. Put plainly: Test C postemergence cocklebur. The format is in vivo, Xanthium strumarium. Conditions: 0 to 100 scale, 0 no effect, 100 complete control. The essentials:
as §1

Test [1] relates to Digitaria sanguinalis (DIGSA). Put plainly: Test F preemergence, alone and in mixture with rimsulfuron, DIGSA. The format is in vivo. Conditions: 21 days after treatment, 0-100 scale. As for the experimental part: Abutilon theophrasti (ABUTH), Chenopodium album (CHEAL), Amaranthus rudis (AMATA), Setaria faberii (SETFA), Panicum dichotomiflorum (PANDI), and Digitaria sanguinalis (DIGSA) were grown from seed in pots of an artificial potting mixture in a greenhouse. Compounds of the present invention were applied at 70 and 105 g ai/ha preemergence. Rimsulfuron was applied at 8.8 and 17.5 g ai/ha. Mixtures of the compounds of the present invention and rimsulfuron were also applied.
Following application, the plants were maintained by watering as needed. A fertilizer solution of Peter's 20-20-20 (10 pounds/5 gallons of water) plus Sprint 330, a Iron Chelate micronutrient, (113.5 grams/5 gallons of water) was injected into the water with an Anderson fertilizer injection system to provide approximately 219 ppm of nitrogen with each watering. Artificial lighting was used to supplement natural light to produce a 14 hour photoperiod and: an additional one hour light period was used between 1:00 am to 2:00 am for a night interruption. Greenhouse temperatures were targeted for 27° C. in the day and 21° C. at night. At 21 days after treatment, all plants were evaluated for injury as compared to control plants that were sprayed only with non-phytotoxic solvent.
Colby's equation was used to calculate the expected additive herbicidal effect of the mixtures of Compound 21 and the mixture partners listed above. […]

For a further test, the system named is arrowleaf sida. Nature of the test: Test C postemergence arrowleaf sida. The format is in vivo, Sida rhombifolia. Conditions: 0 to 100 scale, 0 no effect, 100 complete control. Put shortly: as §1
[2] abbreviates: Rate 64 g/ha, 0 no injury, 100 complete control.
[3] abbreviates: Alone: Cmpd. rate 70, Rimsulfuron 0.
[4] abbreviates: Alone: Cmpd. rate 105, Rimsulfuron 0.

Each structure is given as a SMILES string.

With `Cc1ccc(-n2c(=O)on(C(=O)N(c3ccc(F)cc3F)C(C)C)c2=O)c(C)c1` [Compound 24], the “Plant response rating, Sourgrass” value stood at 40 in the test with sourgrass (Rate 32 g/ha, 0 no injury, 100 complete control); 85 in the test on sourgrass (setting [2]); 100 with sourgrass (Rate 250 g/ha); 100 with sourgrass (Rate 500 g/ha). The “Sourgrass plant response rating” value in the test with sourgrass (setting [2]) is 100; in the test with sourgrass (Rate 125 g/ha, 0 no injury, 100 complete control) it was 100.
On to `CC(C)N(C(=O)n1oc(=O)n(C(C)C)c1=O)c1ccccc1` [Compound 113], for which the “Plant response rating, Johnsongrass” value turned out to be 0 with johnsongrass (Rate 140 g/ha), 20 in the test with johnsongrass (Rate 280 g/ha), 60 with johnsongrass (Rate 560 g/ha) and 95 in the test on johnsongrass (Rate 1120 g/ha). Besides, the “Plant response rating, Giant foxtail” value with giant foxtail (Rate 140 g/ha) came out at 20; in the test with giant foxtail (Rate 280 g/ha), 70; in the test on giant foxtail (Rate 560 g/ha), 80; in the test on giant foxtail (Rate 1120 g/ha) it was 80. Besides, the entries for the “AMATA Observed” value with Amaranthus rudis (AMATA) (setting [3]) and in the test with Amaranthus rudis (AMATA) (setting [4]) were 35% and 25%, respectively. Further, the “Plant response rating, Cocklebur” value in the test on cocklebur (Rate 140 g/ha) turned out to be 5; in the test on cocklebur (Rate 280 g/ha), 50; in the test on cocklebur (Rate 560 g/ha) it was 50; in the test with cocklebur (Rate 1120 g/ha), 50. Moreover, the entries for the “DIGSA Observed” value in test [1] (setting [3]) and in test [1] (setting [4]) were 95% and 70%, respectively. In addition, the “Plant response rating Arrowleaf sida” value in the test with arrowleaf sida (Rate 140 g/ha) worked out at 30; in the test with arrowleaf sida (Rate 280 g/ha) it was 40; in the test on arrowleaf sida (Rate 560 g/ha), 70; in the test with arrowleaf sida (Rate 1120 g/ha), 95.

Values taken from US6737383B1, “Herbicidal oxadiazolidines” (priority 1999, dated 2004).
